Consider two molecules from patent publication US20220273813A1, “PHOTOSENSITIZER-CONJUGATED ANTIMICROBIAL CELLULOSE NANOCRYSTALS AND METHODS OF SYNTHESIZING AND USING SAME” (HNU MATERIALS INC., priority 2019, published 2022).

Experiment [1] relates to P. aeruginosa biofilms. The arrangement: dose or concentration left out as unconfirmed. The note with it: combined with laser irradiation at specific wavelengths; cited from earlier work.
For experiment [2], the system named is E. coli (ATCC25922). The experiment can be described thus: Photobactericidal activity, CFU count, E. coli. The note with it: 20 min ambient light (LED); concentration matched to absorption of 8 mg/L CNC-AA.
Protocol: In the experimental set-up, the viability of bacteria as a response to intensity of white light exposure and concentration of disinfectant was monitored. This was carried out by calculating the number of bacterial colonies present in solution before and after exposure.
According to the experimental protocol, a suspension of cells (2.6×10^8 cells/ml ±0.5 log) was treated with either AA, CNC or CNC+AA or CNC-AA or PBS (untreated control) at different concentration (FIGS. 7-9). For each set of conditions, the initial culture was equally divided into two. One part was light treated while the other was kept in the dark. After different time periods (FIGS. 7-9), bactericidal activity was quantified by counting colony forming units (CFU) on agar plates. […] Comparison of the number of CFUs in the treated samples (AA, CNC, CNC+AA and CNC-AA) to untreated (PBS) placed under light, enabled the inventors to quantify the specific photo-bactericidal activity of the test agents. Killing effect was calculated using the following expression (equation 2).
Killing=Log 10(#CFUUntreated)−Log 10(CFUtreated) (2)

For the molecule `CN(C)c1ccc2nc3ccc(=[N+](C)C)cc-3sc2c1` [methylene blue], the “concentration necessary to eradicate P. aeruginosa biofilms” value in experiment [1] was 0.01 % wt/wt.
Turning to `CN(C)c1ccc2nc3ccc(N)cc3[s+]c2c1.[Cl-]` [AA, azure A], in experiment [2], the “toxicity against E. coli” value is reported as “significantly reduced compared to CNC-AA”.
